Measurements taken from patent US20210360915A1, “CRYOPRESERVING COMPOSITIONS” (UNIVERSITY OF WARWICK, priority 2018, published 2021).

What was measured:
B. subtilis = B. subtilis colony recovery after 7 freeze/thaw cycles; format: cell-based, Bacillus subtilis
From the text: (§1) Bacillus subtilis was chosen as a Gram positive strain and Mycobacterium smegmatis as a Mycobacteria (distinct cell wall compared to other Gram positives) for further analysis. Using the same conditions as for E. coli, the cells were exposed to 7 freeze/thaw cycles and recovered colonies counted, Table 1 and FIG. 4. To enable comparison of the data and to account for the different growth rates of each bacterial strain, the recovered colonies were also normalised to the highest recovery.

M. smegmatis = M. smegmatis colony recovery after 7 freeze/thaw cycles; format: cell-based, Mycobacterium smegmatis
From the text: as §1

E. coli [1] = test system: E. coli
Method: Each component (at the useful cryopreservation concentration) was incubated with E. coli overnight at 4° C. and subsequently the number of colony forming units determined, FIG. 2B.

E. coli [2] = experiment: Post-thaw growth profile of E. coli by OD600; format: cell-based, Escherichia coli; conditions: 7 freeze/thaw cycles in liquid nitrogen, then inoculated into LB media
From the text: This macromolecular cryoprotection solution using ice-inhibiting polymers is clearly suitable for bacteria storage but there are many parameters which can be varied in this system including the molecular weight of the polymers. To enable a large number of conditions to be screened, the post-thaw growth rate of E. coli was also followed by OD600 (turbidity) measurements, which enable higher-throughput measurements. E. coli were frozen with the indicated formulations, and post-thaw inoculated into LB media and their growth monitored.
The improvement was most significant in the case of larger PEGs.

E. coli [3] = experiment: E. coli colony recovery after 7 freeze/thaw cycles; format: cell-based, Escherichia coli; parameters: Mean colonies recovered, E. coli, Total: dose or concentration left out as unconfirmed
Method: E. coli was added to different cryoprotective formulations and then exposed to 7 freeze/thaw cycles from liquid nitrogen (−196° C.) to room temperature (20° C.) and the number of colony forming units determined by growth on agar plates for 16 hours was recorded (see FIG. 2A). This was chosen to mimic laboratory conditions where stocks are often frozen and thawed during use.
In some down-stream applications, […].
as §1

β-Gal = β-Gal (Escherichia coli, UniProt P00722); conditions: 1 hour incubation without freeze/thaw
β-Gal, sequence (P00722 2-1024): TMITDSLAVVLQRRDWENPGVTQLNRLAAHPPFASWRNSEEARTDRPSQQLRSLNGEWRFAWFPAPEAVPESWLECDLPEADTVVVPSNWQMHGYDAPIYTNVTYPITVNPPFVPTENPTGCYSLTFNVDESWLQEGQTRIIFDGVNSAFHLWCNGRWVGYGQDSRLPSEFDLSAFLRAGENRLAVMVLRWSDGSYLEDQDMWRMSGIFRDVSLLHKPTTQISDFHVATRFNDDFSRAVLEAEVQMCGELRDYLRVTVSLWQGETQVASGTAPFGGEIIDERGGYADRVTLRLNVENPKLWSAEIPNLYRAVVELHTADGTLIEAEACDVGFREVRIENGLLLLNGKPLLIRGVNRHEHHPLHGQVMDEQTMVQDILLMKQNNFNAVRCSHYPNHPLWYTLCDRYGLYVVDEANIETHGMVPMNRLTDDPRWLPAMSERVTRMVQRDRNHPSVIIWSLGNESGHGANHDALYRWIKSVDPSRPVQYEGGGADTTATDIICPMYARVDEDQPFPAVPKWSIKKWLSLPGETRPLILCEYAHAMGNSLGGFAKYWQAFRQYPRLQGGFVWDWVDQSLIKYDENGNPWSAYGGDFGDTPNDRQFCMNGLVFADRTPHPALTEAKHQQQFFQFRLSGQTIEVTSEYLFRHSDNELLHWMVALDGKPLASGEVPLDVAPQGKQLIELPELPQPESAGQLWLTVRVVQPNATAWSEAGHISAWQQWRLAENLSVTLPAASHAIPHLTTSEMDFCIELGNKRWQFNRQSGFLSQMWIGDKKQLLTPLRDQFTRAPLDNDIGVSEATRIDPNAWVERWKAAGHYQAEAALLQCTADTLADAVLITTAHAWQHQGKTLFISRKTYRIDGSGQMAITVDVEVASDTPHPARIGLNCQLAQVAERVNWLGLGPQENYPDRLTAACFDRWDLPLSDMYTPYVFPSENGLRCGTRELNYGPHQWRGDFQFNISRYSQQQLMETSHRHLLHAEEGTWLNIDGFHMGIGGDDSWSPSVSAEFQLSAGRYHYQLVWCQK
Method: β-Gal activity was determined by a colorimetric assay involving the use of ONPG. Briefly aliquots of 30 μL of 4 mg·mL-1 ONPG were added to wells of a 96 well plate containing 50 μL of 20 μg·mL^−1 B-Gal solution. This was then incubated at room temperature for 5 minutes and quenched by addition of 50 μL of 1M Na2CO3 solution. Absorbance was measured at 420 nm.
Since under standard laboratory conditions, proteins are normally stored at −80° C. through long periods, we decided to test the levels of protein activity after long term ultra-low temperature conditions.

β-galactosidase (β-Gal) = experiment: β-Gal activity recovery after frozen storage (ONPG assay); format: biochemical, bacterial; conditions: frozen at −20° C. for 3 days, thawed at 20° C.; PEG, PVP, Trehalose, HES 100 mg·mL^−1, PVA 1 mg·mL^−1
Method: Samples were made in triplicate at the appropriate concentrations and frozen in 1.5 mL tubes by directly placing in a freezer either at −20° C. or −80° C. The samples were then held at this temperature for the indicated time period and then thawed at 20° C.
Absorbance was measured at 420 nm. All other methods are in the supporting information.
Absorbance was measured at 420 nm.
Activity was tested after thawing at 20° C. (FIG. 6B).

[4] = concentrations as in table footnote, ± SD
[5] = normalised to the highest recovery

SMILES | Mean colonies recovered, B. subtilis, Total (B. subtilis; [4]) | Mean colonies recovered, B. subtilis, Normalised (B. subtilis; [5]) [%] | Mean colonies recovered, M. smegmatis, Total (M. smegmatis; [4]) | Mean colonies recovered, M. smegmatis, Normalised (M. smegmatis; [5]) [%] | recovered colonies after overnight incubation with cryoprotectant (toxicity) (E. coli [1]) | post-thaw growth rate (OD600) (E. coli [2]) | recovered colonies (colony forming units) (E. coli [3]; 7 freeze (−196° C.)/thaw (20° C.) cycles, growth on agar plates for 16 hours, PEG/PVA 100 + 1 mg·mL^−1) | Mean colonies recovered, E. coli, Normalised (E. coli [3]; 7 freeze/thaw cycles, normalised to the highest recovery) [%] | Mean colonies recovered, E. coli, Total (E. coli [3]; 7 freeze/thaw cycles, ± SD) | β-Gal function after incubation with cryoprotectant (β-Gal) | protection of β-Gal activity (β-galactosidase (β-Gal))
OCC(O)CO [25% Glycerol, glycerol] | 93 ± 18.9 | 35 | 30 ± 6.0 | 88 | significant reduction in recovered colonies | essentially identical growth rates | 15 | 22 | 15 ± 2.8 |  | 
OC[C@H]1O[C@H](O[C@H]2O[C@H](CO)[C@@H](O)[C@H](O)[C@H]2O)[C@H](O)[C@@H](O)[C@@H]1O [trehalose] |  |  |  |  |  |  |  |  |  | some negative effects on protein function | protected β-Gal activity
